# Experiments:
# LarAIp [1] = molecular target: T1, LarAIp (Isosphaera pallida, UniProt E8QWZ4); experiment: X-ray crystal structure, […] Å; assay type: binding; details: ligand exchange with ~3 mM D/L-2HB at 55 °C 15 min, then 4 °C; active site
# T1 construct: gene Isop_3476; full length, C-terminal Strep-II tag, co-expressed with LarB, LarC and LarE in Lactococcus lactis NZ3900 (structures); apoprotein from E. coli (pBADHisA) plus in vitro-synthesized NPN for substrate assays; 47403 Da after loss of Met1; monomer
# LarAIp [2] = molecular target: T1, LarAIp; experiment: X-ray crystal structure, […] Å; assay type: binding; details: ligand exchange at ~3 mM, 55 °C 15 min, then 4 °C; active site
# LarAIp [3] = molecular target: T1, LarAIp; experiment: X-ray crystal structure, […] Å; assay type: binding; details: naturally bound in enzyme as purified; active site with NPN tethered to Lys183
# LarAIp [4] = molecular target: T1, LarAIp; experiment: competitive-substrate racemization assay, capillary electrophoresis; assay type: biochemical; details: turnover only (relative kcat/KM); 100 mM Tris-HCl pH 8.0, 30 °C, 1 μM NPN
# LarAIp [5] = molecular target: T1, LarAIp; experiment: racemization assay, D-lactate formed measured by D/L-lactate kit; assay type: biochemical; details: turnover only; conversion to D-lactate also seen in crystal
# T1 sequence (E8QWZ4 entry or part of it): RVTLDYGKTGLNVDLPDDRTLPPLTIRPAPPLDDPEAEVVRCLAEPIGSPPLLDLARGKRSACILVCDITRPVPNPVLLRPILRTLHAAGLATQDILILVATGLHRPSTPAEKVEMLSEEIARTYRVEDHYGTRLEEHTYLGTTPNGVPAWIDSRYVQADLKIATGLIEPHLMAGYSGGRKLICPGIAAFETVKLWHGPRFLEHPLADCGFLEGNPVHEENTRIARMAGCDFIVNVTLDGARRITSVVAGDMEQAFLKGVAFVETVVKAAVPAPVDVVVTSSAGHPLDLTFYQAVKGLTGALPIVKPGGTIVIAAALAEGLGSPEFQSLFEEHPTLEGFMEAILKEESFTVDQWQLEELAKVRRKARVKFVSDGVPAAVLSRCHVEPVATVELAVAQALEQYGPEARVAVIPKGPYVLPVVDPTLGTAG
structure (smiles),measurement,setting,value
CC[C@@H](O)C(=O)O [D-2HB],"X-ray crystal structure, 1.38 Å",LarAIp [1],9EID (LarAIp with bound D-2HB)
CC(C)[C@@H](O)C(=O)O [D-2HIV],"X-ray crystal structure, 1.65 Å",LarAIp [2],9EIF (LarAIp with bound D-2HIV)
C[C@@H](O)C(=O)O [D-lactate],"X-ray crystal structure, 1.74 Å",LarAIp [3],9EIA (LarAIp with bound D-lactate as purified)
O=C(O)[C@@H](O)CO [L-glycerate],"competitive-substrate racemization assay, capillary electrophoresis",LarAIp [4],"highest kcat/KM values for L-lactate and 2-hydroxybutyrate (2HB), followed by L-glycerate"
C[C@H](O)C(=O)O [L-lactate],"racemization assay, D-lactate formed measured by D/L-lactate kit",LarAIp [5],confirmed the conversion of three L-α-hydroxyacids into the corresponding D-enantiomers

# — article PMC11851776, “Structural Basis for the Catalysis and Substrate Specificity of a LarA Racemase with a Broad Substrate Spectrum” (ACS Catalysis, 2025)
